From PubChem BioAssay (NCI)
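Interpolation was linear, between the two tested concentrations surrounding the appropriate level; five concentrations were tested over 48 hours in 96-well plates. At the GI50, growth is halved. TGI is the concentration that stops growth completely.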

Legend:
Experiment in all cases: NCI anticancer screen, dose series, 48 h
[1] = test system: HCC-2998 colon
[2] = test system: UACC-257 melanoma
[3] = test system: SF-295 CNS
[4] = test system: OVCAR-8 ovarian
[5] = test system: M14 melanoma
[6] = test system: BT-549 breast
[7] = test system: NCI-H23 lung
[8] = test system: SNB-19 CNS
[9] = test system: SR leukemia
[10] = test system: CAKI-1 renal

CN1CCN(c2nc(NCCNc3ccnc4cc(Cl)ccc34)c3ccccc3n2)CC1
GI50 [1]: 3.11 µM | TGI [1]: 10.4 µM | GI50 [2]: 1.71 µM | TGI [2]: 3.18 µM | GI50 [3]: 1.79 µM | TGI [3]: 3.45 µM | GI50 [4]: 2.12 µM | TGI [4]: 5.75 µM | GI50 [5]: 1.83 µM | TGI [5]: 3.59 µM | GI50 [6]: 3.49 µM | TGI [6]: 12.8 µM | GI50 [7]: 3.64 µM | TGI [7]: 15.2 µM | GI50 [8]: 3.34 µM | TGI [8]: 15.2 µM | GI50 [9]: 1.3 µM | TGI [9]: 3.67 µM

COc1ccc(-c2ccc(/C=N/n3cnn(CN4CCN(C)CC4)c3=S)o2)c([N+](=O)[O-])c1
GI50 [4]: 18.9 µM | TGI [4]: 55.5 µM | GI50 [5]: 14.2 µM | TGI [5]: 60.7 µM | GI50 [6]: 27.5 µM | TGI [6]: 91.8 µM | GI50 [7]: 16.8 µM | TGI [7]: 54.6 µM | GI50 [8]: 56.4 µM | TGI [8]: > 100 µM | GI50 [9]: 31.5 µM | TGI [9]: > 100 µM

N#CC1=C(N)Oc2c(sc3c(F)cccc23)C1c1ccc(Cl)cc1 (stereo unspecified)
GI50 [1]: 7.25 µM | TGI [1]: 22.6 µM | GI50 [2]: 11.7 µM | TGI [2]: > 100 µM | GI50 [3]: 2.74 µM | TGI [3]: 9.5 µM | GI50 [4]: 4.4 µM | TGI [4]: 18.7 µM | GI50 [5]: 2.19 µM | TGI [5]: 6.57 µM | GI50 [6]: 3.6 µM | TGI [6]: 22.5 µM | GI50 [7]: 3.37 µM | TGI [7]: 16.2 µM | GI50 [8]: 3.32 µM | TGI [8]: 16.3 µM | GI50 [9]: 1.6 µM | TGI [9]: 13.4 µM

Cc1c(Br)cccc1NC(=O)c1sc2nc3c(cc2c1N)CN(Cc1ccccc1)CC3
GI50 [1]: 1.6 µM | TGI [1]: > 50 µM | GI50 [2]: 8.92 µM | TGI [2]: > 50 µM | GI50 [3]: 0.129 µM | TGI [3]: 9.42 µM | GI50 [4]: 0.298 µM | TGI [4]: > 50 µM | GI50 [5]: 0.107 µM | TGI [5]: 0.386 µM | GI50 [6]: 0.708 µM | TGI [6]: 25.3 µM | GI50 [7]: 0.343 µM | TGI [7]: > 50 µM | GI50 [8]: 0.448 µM | TGI [8]: > 50 µM | GI50 [9]: 0.107 µM | TGI [9]: > 50 µM

C=CC[n+]1c(/C=C2\Sc3ccccc3N2C)sc(-c2ccccc2)c1-c1ccccc1
GI50 [1]: 0.401 µM | TGI [1]: 15.7 µM | GI50 [2]: 0.239 µM | TGI [2]: 0.737 µM | GI50 [3]: 0.276 µM | TGI [3]: 0.903 µM | GI50 [4]: 0.338 µM | TGI [4]: 10.9 µM | GI50 [5]: 0.373 µM | TGI [5]: 1.59 µM | GI50 [6]: 0.296 µM | TGI [6]: 0.907 µM | GI50 [7]: 0.289 µM | TGI [7]: 10.9 µM | GI50 [8]: 0.375 µM | TGI [8]: 15.1 µM | GI50 [9]: 0.353 µM | TGI [9]: 1.87 µM

O=C1/C(=C/c2ccc(F)cc2)CN(Cc2cn(CCNc3ccnc4cc(Cl)ccc34)nn2)C/C1=C\c1ccc(F)cc1
GI50 [1]: 1.19 µM | TGI [1]: 2.55 µM | GI50 [2]: 1.78 µM | TGI [2]: 3.35 µM | GI50 [3]: 1.94 µM | TGI [3]: 3.65 µM | GI50 [4]: 1.78 µM | TGI [4]: 5.24 µM | GI50 [5]: 1.92 µM | TGI [5]: 3.74 µM | GI50 [6]: 1.85 µM | TGI [6]: 3.26 µM | GI50 [7]: 1.84 µM | TGI [7]: 4.01 µM | GI50 [8]: 1.57 µM | TGI [8]: 2.92 µM | GI50 [9]: 0.333 µM | TGI [9]: 1.66 µM

CC(C)=CCNc1ncnc2c1ncn2C1OC(COP(=O)(O)O)C(O)C1O (stereo unspecified)
GI50 [1]: 10.7 µM | TGI [1]: > 100 µM | GI50 [2]: > 100 µM | TGI [2]: > 100 µM | GI50 [3]: 5.8 µM | TGI [3]: 34 µM | GI50 [4]: 1.6 µM | TGI [4]: 3.64 µM | GI50 [5]: 10.4 µM | TGI [5]: > 100 µM | GI50 [6]: 2.43 µM | TGI [6]: 6.81 µM | GI50 [10]: 3.6 µM | TGI [10]: > 67.7 µM | GI50 [7]: 6.68 µM | TGI [7]: > 100 µM | GI50 [8]: 26.3 µM | TGI [8]: > 100 µM

CC(=O)NC1=NC(=O)/C(=C/c2ccc(Cl)cc2Cl)N1C
TGI [1]: > 100 µM | TGI [2]: > 100 µM | TGI [3]: > 100 µM | TGI [4]: > 100 µM | TGI [5]: > 100 µM | TGI [6]: > 100 µM | TGI [10]: > 100 µM | TGI [7]: > 100 µM | TGI [8]: > 100 µM

COC1=CC(=O)c2c(O)c3c(c(O)c2C1=O)CC(C)(O)OC3 (stereo unspecified)
TGI [1]: 13.9 µM | TGI [2]: 4.88 µM | TGI [3]: 13.9 µM | TGI [4]: 8.65 µM | TGI [5]: 4.53 µM | TGI [6]: 18.7 µM | TGI [10]: 16.5 µM | TGI [7]: 8.42 µM | TGI [8]: 13.4 µM

COC(=O)c1ccc2c(c1)[n+](=O)c(C(C)=O)c(C(F)(F)F)n2[O-]
GI50 [1]: 1.78 µM | TGI [1]: 3.18 µM | GI50 [2]: 1.82 µM | TGI [2]: 3.31 µM | GI50 [3]: 1.33 µM | TGI [3]: 2.78 µM | GI50 [4]: 2.87 µM | TGI [4]: 8.28 µM | GI50 [5]: 1.75 µM | TGI [5]: 3.2 µM | GI50 [6]: 2.07 µM | TGI [6]: 4.51 µM | GI50 [10]: 1.94 µM | TGI [10]: 5.07 µM | GI50 [7]: 1.81 µM | TGI [7]: 3.38 µM | GI50 [8]: 3.12 µM | TGI [8]: 9.12 µM

COc1cc(C2CC(c3ccc(C)cc3)=NN2C(C)=O)ccc1Oc1ccnc2cc(Cl)ccc12 (stereo unspecified)
GI50 [1]: > 100 µM | TGI [1]: > 100 µM | GI50 [2]: > 100 µM | TGI [2]: > 100 µM | GI50 [3]: 2.52 µM | TGI [3]: > 100 µM | GI50 [5]: > 100 µM | TGI [5]: > 100 µM | GI50 [6]: 3.48 µM | TGI [6]: > 100 µM | GI50 [7]: 2.71 µM | TGI [7]: > 100 µM | GI50 [8]: 37.4 µM | TGI [8]: > 100 µM | GI50 [9]: > 100 µM | TGI [9]: > 100 µM

Nc1nc(Cl)cc2c1ncn2C1OC(CO)C(O)C1O (stereo unspecified)
GI50 [2]: > 100 µM | TGI [2]: > 100 µM | GI50 [4]: > 100 µM | TGI [4]: > 100 µM | GI50 [5]: > 100 µM | TGI [5]: > 100 µM | GI50 [6]: > 100 µM | TGI [6]: > 100 µM | GI50 [7]: > 100 µM | TGI [7]: > 100 µM | GI50 [8]: > 100 µM | TGI [8]: > 100 µM | GI50 [9]: > 100 µM | TGI [9]: > 100 µM
